In assay [1] the target is T1, hTRPM3 or its mutant N991A (Homo sapiens, UniProt Q9HCF6, N1016A).
T1 construct: expressed in transfected cells; host or cells: Xenopus laevis oocytes (excised inside-out patches)
T1 sequence (Q9HCF6 1-1325 isoform Q9HCF6-10 N991A): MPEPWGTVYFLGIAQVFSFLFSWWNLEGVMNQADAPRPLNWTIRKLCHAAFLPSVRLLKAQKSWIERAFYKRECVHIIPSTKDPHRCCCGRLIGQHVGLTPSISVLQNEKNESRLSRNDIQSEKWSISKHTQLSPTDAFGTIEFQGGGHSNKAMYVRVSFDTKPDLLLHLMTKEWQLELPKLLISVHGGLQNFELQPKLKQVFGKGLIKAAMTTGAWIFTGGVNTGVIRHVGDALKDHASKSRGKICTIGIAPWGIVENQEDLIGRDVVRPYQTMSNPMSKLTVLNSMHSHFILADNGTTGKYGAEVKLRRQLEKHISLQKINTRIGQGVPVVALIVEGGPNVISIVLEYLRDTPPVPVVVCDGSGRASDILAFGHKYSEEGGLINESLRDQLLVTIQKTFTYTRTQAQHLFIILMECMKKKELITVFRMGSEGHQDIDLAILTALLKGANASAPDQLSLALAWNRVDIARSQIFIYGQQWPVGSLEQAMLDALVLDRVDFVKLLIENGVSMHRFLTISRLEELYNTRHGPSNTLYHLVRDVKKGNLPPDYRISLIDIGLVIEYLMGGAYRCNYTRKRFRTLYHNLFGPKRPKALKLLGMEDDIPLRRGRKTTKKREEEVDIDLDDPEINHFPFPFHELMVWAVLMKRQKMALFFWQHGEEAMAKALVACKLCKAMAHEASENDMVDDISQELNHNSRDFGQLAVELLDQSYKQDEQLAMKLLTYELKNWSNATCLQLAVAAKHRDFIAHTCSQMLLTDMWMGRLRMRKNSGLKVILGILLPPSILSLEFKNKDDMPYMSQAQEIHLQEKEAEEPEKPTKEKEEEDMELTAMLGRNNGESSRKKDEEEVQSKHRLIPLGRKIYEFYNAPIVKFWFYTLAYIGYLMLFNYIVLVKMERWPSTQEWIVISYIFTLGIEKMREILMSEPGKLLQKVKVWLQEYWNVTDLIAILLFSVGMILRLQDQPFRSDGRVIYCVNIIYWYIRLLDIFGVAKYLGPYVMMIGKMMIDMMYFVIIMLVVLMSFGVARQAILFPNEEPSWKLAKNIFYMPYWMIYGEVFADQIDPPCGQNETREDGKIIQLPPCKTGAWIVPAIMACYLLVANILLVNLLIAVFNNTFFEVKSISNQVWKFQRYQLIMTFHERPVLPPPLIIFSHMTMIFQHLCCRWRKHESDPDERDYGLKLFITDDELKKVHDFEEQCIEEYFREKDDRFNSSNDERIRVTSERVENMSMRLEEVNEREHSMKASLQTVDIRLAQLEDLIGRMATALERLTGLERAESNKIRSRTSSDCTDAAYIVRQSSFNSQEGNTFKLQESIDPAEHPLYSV
The experiment in a line: Excised inside-out patch clamp, relative effect of PI(4)P compared to PI(4,5)P2. The following applies: 25 μM diC8 PI(4)P vs 25 μM diC8 PI(4,5)P2, 100 μM PregS in pipette. Format: cell-based. As to the method:
Oocytes were placed in a recording chamber filled with bath solution, which contained 97 mM KCl, 5 mM EGTA, 10 mM Hepes, pH 7.4. Before starting measurements, the vitelline layer was carefully removed with forceps without damaging the oocyte. Then a giga-ohm seal was formed using a borosilicate glass pipette (World Precision Instruments) with resistance from 0.8 to 1 MΩ. The pipette was filled with a solution containing 97 mM NaCl, 2 mM KCl, 1 mM MgCl2, 5 mM Hepes, and 100 μM PregS at pH 7.4. Currents were measured by an Axopatch 200B amplifier and analyzed with the pClamp 9.0 software. Compounds were dissolved in the bath solution and delivered to the inner side of cell membrane by a custom-made gravity-driven perfusion system. Either 25 μM PI(4,5)P2, 25 μM PI(4)P, or 10 μM AASt PI(4,5)P2 was applied in these experiments to reactivate TRPM3. At the end of every recording, 30 μg/ml Poly-Lys (Poly-K) was applied.
(In patch-clamp work, channel activity is measured electrically.)

The test system of assay [2] is Rat TRPM8 or its mutants. As to the kind of experiment: Menthol concentration dependence, TEVC in Xenopus oocytes. Format: cell-based. The following applies: 100 mV; R851A and W682Q mutants. The protocol: (§1) To express exogenous proteins, RNA was microinjected into oocytes using a nanoliter-injector system (Warner Instruments). RNA was in vitro transcribed from the linearized pGEMSH vectors, which contained the complementary DNA clones for hTRPM3 ([38]) rat TRPM8, human M2 muscarinic (hM2) receptor, or Gβγ subunits by using the mMessage mMachine T7 Transcription Kit (Thermo Fisher Scientific). […] For coexpression of TRPM3 constructs and Gβ1γ2 subunits, 40 ng of TRPM3 was coinjected with 5 ng Gβ1 and 5 ng Gγ2. In the case of coexpressing TRPM3 and hM2 receptors, these two were injected at 1:1 ratio, 40 ng each. […]
(§2) Oocytes were placed in extracellular solution, which contained 97 mM NaCl, 2 mM KCl, 1 mM MgCl2, and 5 mM Hepes, pH 7.4. Currents were measured with a protocol consisting a voltage step from the 0 mV holding potential to −100 mV, followed by a ramp to 100 mV once every 0.5 s with a GeneClamp 500B amplifier and analyzed with the pClamp 9.0 software (Molecular Devices). Currents were recorded by thin wall glass pipettes that contained inner filament and were filled with 1% agarose in 3 M KCl. […] For wortmannin experiments specifically, PregS, or menthol-induced currents were measured, then the same oocyte was incubated with 35 μM wortmannin for 2 h, and currents were measured again using the same protocol. […]

Assay [3] deals with mouse TRPM3α2 (mTRPM3α2) or its mutant N993A. As to the kind of experiment: Whole-cell patch clamp with rapamycin-inducible pseudojanin phosphatase in HEK293 cells. Format: cell-based. The following applies: 100 nM rapamycin. As to the method:
Human embryonic kidney 293 cells were purchased from American Type Culture Collection (catalog number: CRL-1573). Human embryonic kidney 293 cells were cultured in minimum essential medium supplemented with 10% fetal bovine serum and 100 IU/ml penicillin plus 100 μg/ml streptomycin. Cells were incubated in 5% CO2 at 37 °C. Cells were tested to confirm that they were not infected by mycoplasma. Cells were used up to 25 passages and then discarded. Cells were transiently transfected with complementary DNA encoding different TRPM3 constructs (200–400 ng) using the Effectene reagent (Qiagen). mTRPM3α2 and its mutant were cloned into the bicistronic pCAGGS/IRES-GFP vector. The components of rapamycin-inducible pseudojanin phosphatases ([40]) were cotransfected with mTRPM3α2 at 1:1 ratio.
After 24 h of transfection, cells were plated on poly-D-lysine–coated 12 mm cover slips. Experiments were performed 48 to 72 h after transfection. […] After formation of gigaohm-resistance seals, the whole cell configuration was established, and currents were recorded by applying a ramp protocol once every 1 s. […] Data were collected and analyzed with the pClamp10.6 (Clampex) acquisition software (Molecular Devices) and further analyzed and plotted with Prism 9 (GraphPad by Dotmatics). […]

The test system of assay [4] is Rat TRPM8 or its mutants. As to the kind of experiment: Wortmannin inhibition of menthol-induced currents (PI(4,5)P2 depletion), TEVC in Xenopus oocytes. Format: cell-based. To be noted: 35 μM wortmannin 2 h; 500 μM menthol; 100 mV; R851Q and W682Q mutants. The protocol:
as §1, §2

The subject of assay [5] is Human TRPM3_1325 splice variant or its mutants. The experiment in a line: Wortmannin inhibition of PregS-induced currents (PI(4,5)P2 depletion), TEVC in Xenopus oocytes. The following applies: 35 μM wortmannin 2 h; for inhibition of PregS-induced currents after wortmannin treatment, compared with WT TRPM3: 100 mV; for inhibition of PregS-induced currents after wortmannin treatment, WT vs disease mutants: V990M and P1090Q. Format: cell-based. As to the method:
Next, we mutated the predicted PI(4,5)P2-interacting residues in TRPM3 and tested the effects of the mutations on sensitivity to inhibition by decreasing PI(4,5)P2 levels. We expressed the WT and mutant channels in Xenopus oocytes and performed two-electrode voltage clamp (TEVC) experiments. We stimulated channel activity with 50 μM PregS and measured current amplitudes, then incubated the oocytes with 35 μM wortmannin for 2 h, and measured PregS-induced currents in the same oocytes (Fig. 3, A and B). Wortmannin at this concentration inhibits phosphatidylinositol 4-kinases and has been used to inhibit the activity of PI(4,5)P2-dependent ion channels ([39]). […] Mutating a PI(4,5)P2-interacting residue is expected to increase inhibition by high concentrations of wortmannin ([39]). […] We also generated two additional mutations in the TRP domain in residues that are not in contact with PI(4,5)P2, K1128Q and R1141Q.
To express exogenous proteins, RNA was microinjected into oocytes using a nanoliter-injector system (Warner Instruments). RNA was in vitro transcribed from the linearized pGEMSH vectors, which contained the complementary DNA clones for hTRPM3 ([38]) rat TRPM8, human M2 muscarinic (hM2) receptor, or Gβγ subunits by using the mMessage mMachine T7 Transcription Kit (Thermo Fisher Scientific). […] For coexpression of TRPM3 constructs and Gβ1γ2 subunits, 40 ng of TRPM3 was coinjected with 5 ng Gβ1 and 5 ng Gγ2. In the case of coexpressing TRPM3 and hM2 receptors, these two were injected at 1:1 ratio, 40 ng each. Oocytes were used for electrophysiological experiments after 48 to 72 h incubation at 16 °C after RNA injection.
Oocytes were placed in extracellular solution, which contained 97 mM NaCl, 2 mM KCl, 1 mM MgCl2, and 5 mM Hepes, pH 7.4. Currents were measured with a protocol consisting a voltage step from the 0 mV holding potential to −100 mV, followed by a ramp to 100 mV once every 0.5 s with a GeneClamp 500B amplifier and analyzed with the pClamp 9.0 software (Molecular Devices). Currents were recorded by thin wall glass pipettes that contained inner filament and were filled with 1% agarose in 3 M KCl. In all TEVC experiments, different concentrations of PregS were applied to activate TRPM3 channels, and various concentrations of menthol were used to trigger responses of TRPM8 channels. The hM2 receptor was activated by 5 μM acetylcholine. For wortmannin experiments specifically, PregS, or menthol-induced currents were measured, then the same oocyte was incubated with 35 μM wortmannin for 2 h, and currents were measured again using the same protocol. In the bar graphs in Figure 3, the individual panels show experiments that were performed on the same day.

The test system is the same in assay [6]. On the set-up: method as in PMID 26123195. To be noted: 35 nM wortmannin (selectively inhibits PI3K); cited from earlier work.
For the next assay, the system named is hTRPM3. Further details: method as in PMID 32343227. The following applies: hTRPM3 WT; read-out: EC50 concentration of PregS; cited from earlier work.
Assay [7] relates to TRPM3_1325 splice variant or its mutants. The experiment in a line: PregS concentration dependence, TEVC in Xenopus oocytes. Format: cell-based, human. To be noted: 100 mV; N991A and K992A mutants. The protocol: as §1, §2
For the next assay, the system named is hTRPM3 V990M. Further details: method as in PMID 32343227. To be noted: V990M mutant; read-out: EC50 concentration of PregS; cited from earlier work.
The test system of a further assay is hTRPM3 P1090Q. Further details: method as in PMID 32343227. The following applies: P1090Q mutant; read-out: EC50 concentration of PregS; cited from earlier work.

Regarding `CCCCCCCC(=O)OC[C@H](COP(=O)(O)O[C@H]1[C@H](O)[C@@H](O)[C@H](OP(=O)(O)O)[C@@H](O)[C@H]1O)OC(=O)CCCCCCC` [PI(4)P], the “relative effect of PI(4)P compared with PI(4,5)P2” value in assay [1] is “did not change”.
For the compound `CC1CCC(C(C)C)C(O)C1` (centres unmarked) [menthol], in the assay on Rat TRPM8 or its mutants [2], the “menthol dose response, compared with WT TRPM8” value is reported as “right shifted”.
As to `CO[C@H]1C[C@@H]2CC[C@@H](C)[C@@](O)(O2)C(=O)C(=O)N2CCCC[C@H]2C(=O)O[C@H]([C@H](C)C[C@@H]2CC[C@@H](O)[C@H](OC)C2)CC(=O)[C@H](C)/C=C(\C)[C@@H](O)[C@@H](OC)C(=O)[C@H](C)C[C@H](C)/C=C/C=C/C=C/1C` [rapamycin], the “inhibition by rapamycin (PI(4,5)P2 depletion), N993A compared with WT mTRPM3α2” value in [3] (currents induced by 25 μM PregS plus 10 μM clotrimazole) is on record as “significantly larger inhibition”; in [3] (currents stimulated with 25 μM PregS), “significantly higher inhibition”.
`COC[C@H]1OC(=O)c2coc3c2[C@@]1(C)C1=C(C3=O)[C@@H]2CCC(=O)[C@@]2(C)C[C@H]1OC(C)=O` [wortmannin]: in the assay with Rat TRPM8 or its mutants [4], the “inhibition of menthol-induced currents by wortmannin, compared with WT TRPM8” value is “significantly higher level of inhibition”. Also, the “inhibition of PregS-induced currents after wortmannin treatment, compared with WT TRPM3” value in assay [5] (50 μM PregS, R1141Q mutant) is reported as “small but significant increase”; in assay [5] (50 μM PregS, mutants W761F, N991A, K992A and R1131Q), “significantly higher inhibition”. In addition, the “inhibition of PregS-induced currents after wortmannin treatment, WT vs disease mutants” value in [5] (50 μM PregS) is on record as “inhibited to a similar extent”; in assay [5] (PregS at respective EC50 (17, 0.6, 7 μM)) it was “inhibited to a similar extent to WT channels”. Moreover, the “inhibition of TRPM3 by wortmannin” value in assay [6] is recorded as “did not inhibit TRPM3”.
For pregnenolone sulfate [PregS], the EC50 with hTRPM3 is 17 µM; in the assay on hTRPM3 V990M it was 0.6 µM; in the assay with hTRPM3 P1090Q, 7 µM. In [7], the “PregS dose response, compared with WT TRPM3” value is “shifted the PregS dose response to the right”.
